Measured values: patent EP1733758A1, “Methods for administration of a farnesyl dibenzodiazepinone” (Ecopia Biosciences Inc., priority 2005, dated 2006)
pIC50: −log10 of the molar value. Where two headings read alike, the source gives them in different places.

Tests used:
[1] = tested on: human prostate tumor (PC3) xenografts; assay: Human PC3 prostate tumor xenograft efficacy; format: in vivo, HRLN male nude mice; details: for %T/C: day 38, P< 0.0001
Method: The anticancer activity of the compound of Formula I was further tested in a human PC3 prostate model in mice. HRLN male nude mice (8 weeks of age) were implanted with 1 mm^3 PC3 tumor fragments subcutaneously (SC) in the right flank. Animals were randomized (ten per group) when tumors reach an average size of 80 - 120 mg and treatment began according to the table below. For these studies, the compound of Formula I was formulated in 5% ethanol, 5% PEG-400, 15% Polysorbate 80, and 75% of water containing 5% dextrose.
Tumor measurements were taken twice weekly using callipers and were converted to tumor mass (in milligrams) using the formula: with^2 (mm) x length (mm) x 0.52. Body weights were also recorded twice weekly. Statistical analysis was done using the unpaired two-tailed Student's t test.

[2] = Pharmacokinetics of 14-day continuous intravenous infusion in rats; format: in vivo, Sprague-Dawley rats; details: for steady-state plasma concentration / Css / T½z: 14-day CIV; for Css: average of plasma concentration between 30h and 14 days; for T½z: calculated at the end of treatment
Method: (§1) Sprague-Dawley rats received an intravenous continuous infusion over 14 days of Formula I at 25 mg/kg/day, 50 mg/kg/day, or 75 mg/kg/day at a rate of 2 mL/kg/h for 14 consecutive days (same formulation as in Example 7). Blood was collected from the jugular vein in tubes containing K2 EDTA from 3 rats/sex/group at the following time points: 2, 6, and 12 hours after the start of dosing on Day 1, on Day 2 at 6 hours (approximately 30 hours after the start of dosing), on Days 6 and 10 at 6 hours, and on Day 15, 1 hour prior the end of dosing, and then at 5 min, 15 min, 30 min, 1 h, and 2 h after the end of dosing.

[3] = Pharmacokinetics and tissue distribution after bolus IV, IP, SC and PO administration in mice; format: in vivo, female Crl: CD1 mice
Method: The compound of formula I was dissolved in ethanol (5%), Polysorbate 80 (15%), PEG 400 (5%) and dextrose (5%) at a final concentration of 6 mg/ml (IV, IP and SC administration). For oral administration, the compound of Formula I was solubilized in Chremophor® EL/ Ethanol (50%:50%) at a final concentration of 6 mg/ml. Prior to dosing, animals (female Crl: CD1 mice; 6 weeks of age, 22-24g) were weighed, randomly selected and assigned to the different treatment groups. The compound of Formula I was administered by the bolus intravenous (IV), bolus subcutaneous (SC), bolus intraperitoneal (IP), or oral (PO) route to the assigned animals. The dosing volume of Formula I was 5 mL per kg body weight. Animals were anesthetized prior to bleeding with 5% isoflurane. Blood was collected into microtainer tubes containing the anticoagulant K2EDTA by cardiac puncture from each of 4 animals per bleeding timepoint (2min, 5 min, 15 min, 30 min, 1 h, 2h, 4h and 8h). Following collection, the samples were centrifuged and the plasma obtained from each sample was recovered and stored frozen (at approximately - 80°C) pending analysis. At the 5 min and 30 min time points, the following organs were harvested from each animal: brain, lungs, skeletal muscle, fat tissue, kidneys, spleen, thymus and liver. Tissues were frozen (at approximately -80°C) pending analysis. Samples were analysed by LC/MS/MS.
Plasma values of the compound of Formula I falling below the limit of quantitation (LOQ) were set to zero. […] The following pharmacokinetic parameters were calculated: area under the plasma concentration versus time curve from time zero to the last measurable concentration time point (AUCO-t), area under the plasma concentration versus time curve extrapolated to infinity (AUCinf), maximum observed plasma concentration (Cmax), time of maximum plasma concentration (tmax), apparent first-order terminal elimination rate constant (kel), apparent first-order terminal elimination half-life will be calculated as 0.693/kel (t1/2). The systemic clearance (CL) of the compound of Formula I after intravenous administration was calculated using Dose/AUCinf. Pharmacokinetic parameters were calculated using Kinetica™ 4.1.1 (InnaPhase Corporation, Philadelphia, PA).

[4] = Toxicity of 14-day continuous intravenous infusion in rats; format: in vivo; details: 14-day infusion, all treated and control groups, toxicity was due to the vehicle
Method: as §1
The toxicity was due to the vehicle and was attributed to smaller size of infusion vessels, and concurrent catheter tract infection.

tumor cell lines = assay: In vitro activity against tumor cell lines (average); format: cell-based
[5] = tested on: orthotopic C6 glioma tumor xenograft; assay: Orthotopic C6 glioma tumor xenograft survival model; format: in vivo, CD1 female nude mice; details: IP 30 mg/kg days 1, 2 and 3, then 10 mg/kg days 4 and 5 and 9 to 38
Method: The antitumor activity of the compound of formula I was further tested in a orthotopic C6 glioma tumor xenograft model in mice. CD1 female nude mice (6 weeks of age) were grafted intra-cerebrally with 5 x 10^4 (volume of 10 microliters) rat C6 glioma cells (day 0). Treatment was initiated 24 h after tumor cell implantation. The compound of Formula I was administered intraperitoneally (IP) at a concentration of 30 mg/kg (volume of 10 mL/Kg) on days 1, 2 and 3 followed by IP injections of 10 mg/kg on days 4 and 5 and 9 to 38. Vehicle (30% PEG; 30% PG; 40% H2O was injected in a volume of 10 mL/kg using the same route and schedule.
Body weight of animals was monitored every other day and the effect of the compound of Formula I on growth of intracerebral glioma tumors was evaluated by mouse survival and percentage increase in life span (%ILS, expressed as mean survival time of treated animals minus the mean survival time of the control group). By criteria established by the National Cancer Institute, increases in life span exceeding 25% indicate that the drug has significant antitumor activity (Plowman et al. (1997) Human tumor xenografts models in NCI drug development. In: Theicher BA (ed) Anticancer drug development guide: prescreening, clinical trials and approval. Human press, Totowa, pp 101-125). Statistical analysis of mouse survival was performed by Kaplan-Mayer analysis. […]

CC(C)=CCC/C(C)=C/CC/C(C)=C/CN1C(=O)c2cccc(O)c2Nc2c(O)cc(O)cc21 [Formula I, 10-farnesyl-4,6,8-trihydroxy-dibenzodiazepin-11-one]
%T/C ([1]; bolus SC 30 mg/kg days 1 to 5, 8 to 12 and 15 to 19): 25.5%
%T/C ([1]; bolus SC 50 mg/kg every three days x 7): 14.6%
antitumor activity ([1]; bolus intravenous treatment (100 mg/kg, 5/2/5/2/5)): did not result in activity
steady-state plasma concentrations ([2]; 14-day CIV at doses of 50 and 75 mg/kg/day, above therapeutic threshold): > 2 µM
steady-state plasma concentration ([2]; 25 mg/kg/day): ~0.8 µM
Css ([2]; 25 mg/kg/day): 347 ng/mL
T½z ([2]; 25 mg/kg/day): 1.6 h
steady-state plasma concentration ([2]; 50 mg/kg/day): ~2.5 µM
Css ([2]; 50 mg/kg/day): 1,150 ng/mL
T½z ([2]; 50 mg/kg/day): 1.2 h
steady-state plasma concentration ([2]; 75 mg/kg/day): ~3.9 µM
Css ([2]; 75 mg/kg/day): 1,796 ng/mL
T½z ([2]; 75 mg/kg/day): 1.2 h
plasma concentration ([2]; CIV 50 mg/kg/day, Day 10 (unusually high)): 1,753 ng/mL
plasma concentration ([3]; 30 mg/kg bolus IV, initial): 425000 nM
peak concentration ([3]; IP bolus, plasma): 7.8 µM
time peak concentration reached ([3]; IP bolus, plasma): 15 min
tissue distribution ([3]; IV and IP bolus 30 mg/kg, 30 min): well distributed
tissue levels compared with IP ([3]; SC bolus 30 mg/kg, 30 min): significantly lower
peak concentration ([3]; SC bolus, plasma): 2.3 µM
time peak concentration reached ([3]; SC bolus, plasma): 60 min
bioavailability ([3]; female, Crl: CD1, mouse, plasma, PO 30 mg/kg compared to IV bolus administration, read-out: orally bioavailable): 5 to 8%
half-life ([3]; female, Crl:CD1, mouse, bolus IV 30 mg/kg, plasma, read-out: t1/2 α): 4.7 min
concentration at 8 h ([3]; female, Crl:CD1, mouse, plasma, 30 mg/kg bolus IV, by 8 hours, read-out: plasma concentration): ~100 nM
concentration at 4 h ([3]; female, Crl:CD1, mouse, plasma, 30 mg/kg bolus IV, four hours after administration): 200 nM
concentration at 1 h ([3]; female, Crl:CD1, mouse, plasma, 30 mg/kg bolus IV, within one hour): 1300 nM
concentration at 8 h ([3]; female, Crl:CD1, mouse, plasma, 30 mg/kg, IP bolus, read-out: plasma concentration remained for up to 8 hours): ~950 nM
concentration at 8 h ([3]; female, Crl:CD1, mouse, plasma, 30 mg/kg, SC bolus, read-out: plasma concentration remained for up to 8 hours): ~1800 nM
time plasma concentration is maintained at therapeutically relevant levels ([3]; intraperitoneal and subcutaneous 30 mg/kg): over 8 hours
infusion site findings [4]: necrotization and inflammatory lesions at the site of infusion
pIC50 (tumor cell lines): ≤ 6.00
increase in life span [5]: 29%
increase survival [5]: 7 days
